Results on 19 compounds are retold here after ChEMBL document CHEMBL1139706, “Novel thienopyrrole glycogen phosphorylase inhibitors: synthesis, in vitro SAR and crystallographic studies” (Bioorg Med Chem Lett, 2006).

Experiment [1] addresses T1, Glycogen phosphorylase, liver form (Homo sapiens) (UniProt P06737).
T1 sequence (whole entry): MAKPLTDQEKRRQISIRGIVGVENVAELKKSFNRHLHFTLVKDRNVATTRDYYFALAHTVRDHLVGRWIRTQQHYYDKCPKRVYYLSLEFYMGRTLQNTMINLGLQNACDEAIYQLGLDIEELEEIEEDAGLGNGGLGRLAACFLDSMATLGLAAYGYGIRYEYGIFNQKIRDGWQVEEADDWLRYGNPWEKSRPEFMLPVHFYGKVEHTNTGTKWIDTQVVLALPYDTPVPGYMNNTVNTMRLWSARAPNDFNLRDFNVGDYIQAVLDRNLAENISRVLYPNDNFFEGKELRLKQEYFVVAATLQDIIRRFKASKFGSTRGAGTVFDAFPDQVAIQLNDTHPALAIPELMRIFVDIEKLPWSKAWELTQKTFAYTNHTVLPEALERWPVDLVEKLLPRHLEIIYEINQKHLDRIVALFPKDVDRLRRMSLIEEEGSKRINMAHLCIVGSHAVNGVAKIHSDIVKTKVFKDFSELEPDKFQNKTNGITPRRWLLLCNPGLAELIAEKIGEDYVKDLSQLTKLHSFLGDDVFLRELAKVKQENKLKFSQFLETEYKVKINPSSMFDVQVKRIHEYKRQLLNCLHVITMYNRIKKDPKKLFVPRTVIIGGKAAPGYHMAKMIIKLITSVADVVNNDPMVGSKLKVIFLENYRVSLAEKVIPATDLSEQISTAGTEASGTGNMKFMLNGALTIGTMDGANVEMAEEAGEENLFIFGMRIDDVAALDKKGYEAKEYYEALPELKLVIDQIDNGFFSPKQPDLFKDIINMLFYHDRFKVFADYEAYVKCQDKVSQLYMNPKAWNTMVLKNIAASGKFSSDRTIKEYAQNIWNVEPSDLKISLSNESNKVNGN
Kind of experiment: Inhibition of recombinant human liver GPa by multienzyme coupled assay at 10 uM.

Experiment [2] deals with Hepatocyte. Kind of experiment: Inhibition of glucose output in glucagon challenged rat hepatocytes. It is filed as functional, cell-based.
Experiment [3] addresses T2, Glycogen phosphorylase, liver form (Homo sapiens, UniProt P06737).
T2 sequence (P06737 whole entry): T1 sequence (whole entry)
Put plainly: Inhibition of recombinant human liver GPa by multienzyme coupled assay.

In experiment [4] the target is T1, Glycogen phosphorylase, liver form (Homo sapiens). Put plainly: Inhibition of recombinant human liver GPa by multienzyme coupled assay at 100 uM.

As a reminder, the inhibition is the share of the control response that was lost under treatment. On to `CN(C)C(=O)[C@H](Cc1ccccc1)NC(=O)c1cc2c(Br)c(Br)sc2[nH]1`, for which the inhibition in experiment [1] was determined as 20%.

Broadly, the IC50 is the concentration that gives 50% inhibition. In the case of `CN(C)C(=O)[C@H](Cc1ccccc1)NC(=O)c1cc2sc(Cl)c(Cl)c2[nH]1`, the IC50 stood at 1000 nM in experiment [2] and 5 nM in experiment [3].

Take `CNC(=O)[C@H](Cc1ccccc1)NC(=O)c1cc2sc(Cl)cc2[nH]1`: in experiment [3], the IC50 was found to be 577 nM.

As to `O=C(N[C@@H]1Cc2ccccc2[C@H]1O)c1cc2cc(Cl)sc2[nH]1`, the IC50 in experiment [2] was 3600 nM.

Turning to `O=C(N[C@@H]1Cc2ccc(F)cc2[C@H]1O)c1cc2sc(Cl)c(Cl)c2[nH]1`, the values for the IC50 in experiment [2] and in experiment [3] were 1300 nM and 49 nM, respectively.

Regarding `O=C(NC1Cc2ccccc2NC1=O)c1cc2cc(Cl)ccc2[nH]1` (configuration not stated), the results for the IC50 in experiment [2] and in experiment [3] were 7000 nM and 86 nM, respectively.

Regarding `CN(C)C(=O)[C@H](Cc1ccccc1)NC(=O)c1cc2cc(Br)sc2[nH]1`, the results for the IC50 in experiment [2] and in experiment [3] were 1600 nM and 31 nM, respectively.

For the compound `CN(C)C(=O)[C@H](Cc1ccccc1)NC(=O)c1cc2sc(Br)c(Br)c2n1C`, the IC50 was 1100 nM in experiment [2] and above 10000 nM in experiment [3].

With `O=C(NC1Cc2ccccc2C1)c1cc2cc(Cl)sc2[nH]1`, the IC50 in experiment [3] was 806 nM.

For `CN(C)C(=O)[C@H](Cc1ccccc1)N(C)C(=O)c1cc2sc(Br)c(Br)c2[nH]1`, the half-maximal inhibitory concentration (IC50) in experiment [3] is above 10000 nM.

Consider `CNC(=O)[C@H](Cc1ccccc1)NC(=O)c1cc2scc(Cl)c2[nH]1`, for which the IC50 in experiment [3] worked out at 390 nM.

With `O=C(N[C@@H]1Cc2ccc(Cl)cc2[C@H]1O)c1cc2sc(Cl)c(Cl)c2[nH]1`, in experiment [3], the IC50 worked out at 90 nM.

As to `CN(C)C(=O)[C@H](Cc1ccccc1)NC(=O)c1cc2sccc2[nH]1`, the inhibition in experiment [4] worked out at 35%.

For the compound `CN(C)C(=O)[C@H](Cc1ccccc1)NC(=O)c1cc2ccsc2[nH]1`, the IC50 in experiment [3] is 2310 nM.

Take `CN(C)C(=O)[C@H](Cc1ccccc1)NC(=O)c1cc2cc(Cl)ccc2[nH]1`: the results for the IC50 in experiment [2] and in experiment [3] were 2600 nM and 51 nM, respectively.

On to `O=C(N[C@@H]1Cc2ccccc2[C@H]1O)c1cc2sc(Cl)c(Cl)c2[nH]1`, for which the IC50 came out at 1500 nM in experiment [2] and 9 nM in experiment [3].

As to `CN(C)C(=O)[C@H](Cc1ccccc1)NC(=O)c1cc2cc(Cl)sc2[nH]1`, the IC50 in experiment [2] worked out at 1400 nM; in experiment [3], 17 nM.

In the case of `O=C(NC1Cc2ccccc2C1)c1cc2sc(Cl)c(Cl)c2[nH]1`, in experiment [3], the IC50 was 197 nM.

`CN(C)C(=O)[C@H](Cc1ccccc1)NC(=O)c1cc2sc(Br)c(Br)c2[nH]1`: the IC50 in experiment [3] worked out at 23 nM.
